# ChEMBL document CHEMBL4715885, “Novel dual LSD1/HDAC6 inhibitors for the treatment of multiple myeloma” (Bioorg Med Chem Lett, 2021)
# The source made the active and inactive calls. No cut-off for these calls is given here.
# Experiments:
# [1] = target: T1, Protein deacetylase HDAC6 (Homo sapiens, UniProt Q9UBN7); assay: Inhibition of human HDAC6 (unknown origin) using RHKKAc as substrate by fluorescence method
# T1 sequence (Q9UBN7 whole entry): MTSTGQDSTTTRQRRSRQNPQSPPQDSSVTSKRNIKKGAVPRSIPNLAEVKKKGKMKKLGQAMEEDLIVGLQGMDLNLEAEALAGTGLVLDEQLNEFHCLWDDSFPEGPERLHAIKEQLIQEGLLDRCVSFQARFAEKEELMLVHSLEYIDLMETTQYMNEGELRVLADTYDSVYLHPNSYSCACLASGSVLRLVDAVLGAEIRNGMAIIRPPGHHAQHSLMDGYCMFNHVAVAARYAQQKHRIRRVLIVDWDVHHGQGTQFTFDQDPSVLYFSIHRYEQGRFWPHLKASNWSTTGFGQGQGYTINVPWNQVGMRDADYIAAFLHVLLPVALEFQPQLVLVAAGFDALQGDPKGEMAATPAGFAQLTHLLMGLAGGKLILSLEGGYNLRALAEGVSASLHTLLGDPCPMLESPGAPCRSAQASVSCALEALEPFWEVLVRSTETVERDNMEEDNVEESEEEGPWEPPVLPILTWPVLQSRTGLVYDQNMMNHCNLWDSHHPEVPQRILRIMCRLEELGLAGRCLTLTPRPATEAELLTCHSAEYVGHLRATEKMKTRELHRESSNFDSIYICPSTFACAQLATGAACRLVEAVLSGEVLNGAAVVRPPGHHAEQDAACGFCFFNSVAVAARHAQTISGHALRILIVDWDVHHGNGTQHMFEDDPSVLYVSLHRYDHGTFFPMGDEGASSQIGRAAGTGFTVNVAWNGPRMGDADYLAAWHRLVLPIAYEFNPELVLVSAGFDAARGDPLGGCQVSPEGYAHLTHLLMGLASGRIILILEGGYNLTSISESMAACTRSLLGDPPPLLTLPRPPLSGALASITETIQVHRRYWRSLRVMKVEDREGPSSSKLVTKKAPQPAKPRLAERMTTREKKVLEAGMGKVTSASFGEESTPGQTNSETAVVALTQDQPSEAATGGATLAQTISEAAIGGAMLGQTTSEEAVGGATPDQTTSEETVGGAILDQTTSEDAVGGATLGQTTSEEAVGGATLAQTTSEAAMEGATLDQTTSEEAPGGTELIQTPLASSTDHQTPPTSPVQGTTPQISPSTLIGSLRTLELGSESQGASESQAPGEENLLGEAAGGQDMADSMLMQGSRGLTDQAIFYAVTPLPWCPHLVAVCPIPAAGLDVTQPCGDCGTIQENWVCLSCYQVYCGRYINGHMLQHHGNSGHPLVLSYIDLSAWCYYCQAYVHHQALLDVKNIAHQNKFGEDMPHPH
# [2] = target: Histone deacetylase 1 (Homo sapiens) (UniProt Q13547); assay: Inhibition of human HDAC1 at 1uM using RHKKAc as substrate by fluorescence method relative to control
# MM1.S [3] = assay: Antiproliferative activity against human MM1.S cells assessed as reduction in cell viability after 144 hrs; assay type: functional, cell-based
# MM1.S [4] = assay: Antiproliferative activity against human MM1.S cells assessed as reduction in cell viability at 10 uM after 144 hrs relative to control; assay type: functional
# [5] = Stability in human liver microsomes assessed as parent compound remaining measured after 30 mins; assay type: ADME, Microsome; details: microsomes, 0.5 h
# [6] = Stability in mouse liver microsomes assessed as parent compound remaining measured after 30 mins; assay type: ADME, Microsome; details: microsomes, 0.5 h
# [7] = Inhibition of HDAC phosphorylation (unknown origin); design: species or system Homo sapiens
# [8] = target: T2, Polyamine deacetylase HDAC10 (Homo sapiens, UniProt Q969S8); assay: Inhibition of HDAC10 (unknown origin)
# T2 sequence (Q969S8 whole entry): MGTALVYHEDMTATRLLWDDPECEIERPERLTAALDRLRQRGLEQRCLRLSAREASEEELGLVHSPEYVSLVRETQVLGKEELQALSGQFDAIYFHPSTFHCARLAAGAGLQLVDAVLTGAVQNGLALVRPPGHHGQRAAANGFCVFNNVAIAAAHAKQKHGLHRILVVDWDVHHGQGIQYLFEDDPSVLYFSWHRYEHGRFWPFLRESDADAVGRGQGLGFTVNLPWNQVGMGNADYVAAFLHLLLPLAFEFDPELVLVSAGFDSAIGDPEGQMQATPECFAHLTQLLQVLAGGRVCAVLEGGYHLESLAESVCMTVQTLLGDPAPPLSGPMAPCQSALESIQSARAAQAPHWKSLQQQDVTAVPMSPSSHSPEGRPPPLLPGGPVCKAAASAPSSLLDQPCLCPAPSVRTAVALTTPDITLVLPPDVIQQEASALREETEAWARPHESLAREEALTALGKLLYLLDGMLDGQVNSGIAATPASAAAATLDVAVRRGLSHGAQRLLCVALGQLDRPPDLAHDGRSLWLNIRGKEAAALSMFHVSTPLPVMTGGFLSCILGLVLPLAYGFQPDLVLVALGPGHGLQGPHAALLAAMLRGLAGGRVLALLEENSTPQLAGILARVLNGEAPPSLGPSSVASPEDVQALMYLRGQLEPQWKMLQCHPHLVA
# [9] = Antiproliferative activity against human MM1.R cells assessed as reduction in cell viability after 144 hrs; assay type: functional, cell-based; details: MM.1R
# RPMI-8226 = assay: Antiproliferative activity against human RPMI-8226 cells assessed as reduction in cell viability after 144 hrs; assay type: functional, cell-based; details: RPMI-8226, 144 h
# MM1.S [10] = assay: Antitumour activity against human MM1.S cells xenografted in SCID mouse assessed as tumour growth inhibition at 25 mg/kg, po for 12 days relative to control; assay type: functional; details: 288 h, time 12 day, read-out: TGI
# [11] = Toxicity in SCID mouse xenografted with human MM1.S cells assessed as induction of body weight loss at 50 mg/kg, po dosed daily for 12 days; assay type: organism-based; details: in vivo, 288 h, time 12 day
# [12] = Drug concentration in tumour of mouse xenografted with human MM1.S cells at 50 mg/kg, po dosed daily for 12 days; assay type: ADME, organism-based, Neoplasm; details: time 12 day, read-out: Drug uptake
# [13] = Drug concentration in plasma of mouse xenografted with human MM1.S cells at 50 mg/kg, po dosed daily for 12 days; assay type: ADME, organism-based; details: time 12 day
# [14] = Half life in Balb/c mouse at 10 mg/kg, iv; assay type: ADME, organism-based; details: in vivo
# [15] = Half life in Balb/c mouse at 50 mg/kg, po; assay type: ADME, organism-based; details: in vivo
# [16] = Cmax in Balb/c mouse at 10 mg/kg, iv; assay type: ADME, organism-based; design: route intravenous, dose 10 mg/kg; details: in vivo
# [17] = Cmax in Balb/c mouse at 50 mg/kg, po; assay type: ADME, organism-based; design: route oral, dose 50 mg/kg; details: in vivo
# [18] = Initial plasma concentration in Balb/c mouse at 50 mg/kg, po; assay type: ADME, organism-based; details: in vivo
# [19] = AUC (0 to t) in Balb/c mouse at 10 mg/kg, iv; assay type: ADME, organism-based; design: dose 10 mg/kg; details: in vivo
# [20] = Clearance in Balb/c mouse at 50 mg/kg, po; assay type: ADME, organism-based; details: in vivo
# [21] = Volume of distribution in Balb/c mouse at 50 mg/kg, po; assay type: ADME, organism-based; details: in vivo
# [22] = Oral bioavailability in Balb/c mouse at 50 mg/kg; assay type: ADME, organism-based; details: in vivo
# [23] = target: T3, Amine oxidase [flavin-containing] A (Homo sapiens, UniProt P21397); assay: Inhibition of MAO-A (unknown origin)
# T3 sequence (P21397 whole entry): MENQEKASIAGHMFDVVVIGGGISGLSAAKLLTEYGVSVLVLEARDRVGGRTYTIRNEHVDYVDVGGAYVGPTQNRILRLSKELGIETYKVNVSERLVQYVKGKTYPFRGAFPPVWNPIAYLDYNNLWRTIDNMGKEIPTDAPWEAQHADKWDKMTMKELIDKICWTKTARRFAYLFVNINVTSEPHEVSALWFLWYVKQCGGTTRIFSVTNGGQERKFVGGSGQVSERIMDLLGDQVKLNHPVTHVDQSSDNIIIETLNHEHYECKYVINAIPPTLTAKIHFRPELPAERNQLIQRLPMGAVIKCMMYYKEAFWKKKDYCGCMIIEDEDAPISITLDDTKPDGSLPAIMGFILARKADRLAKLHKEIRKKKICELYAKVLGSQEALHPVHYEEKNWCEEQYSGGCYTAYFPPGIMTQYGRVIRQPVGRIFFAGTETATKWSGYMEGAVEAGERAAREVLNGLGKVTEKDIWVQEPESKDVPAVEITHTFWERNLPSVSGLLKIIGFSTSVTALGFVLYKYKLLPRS
# [24] = target: T4, Amine oxidase [flavin-containing] B (Homo sapiens, UniProt P27338); assay: Inhibition of MAO-B (unknown origin)
# T4 sequence (P27338 whole entry): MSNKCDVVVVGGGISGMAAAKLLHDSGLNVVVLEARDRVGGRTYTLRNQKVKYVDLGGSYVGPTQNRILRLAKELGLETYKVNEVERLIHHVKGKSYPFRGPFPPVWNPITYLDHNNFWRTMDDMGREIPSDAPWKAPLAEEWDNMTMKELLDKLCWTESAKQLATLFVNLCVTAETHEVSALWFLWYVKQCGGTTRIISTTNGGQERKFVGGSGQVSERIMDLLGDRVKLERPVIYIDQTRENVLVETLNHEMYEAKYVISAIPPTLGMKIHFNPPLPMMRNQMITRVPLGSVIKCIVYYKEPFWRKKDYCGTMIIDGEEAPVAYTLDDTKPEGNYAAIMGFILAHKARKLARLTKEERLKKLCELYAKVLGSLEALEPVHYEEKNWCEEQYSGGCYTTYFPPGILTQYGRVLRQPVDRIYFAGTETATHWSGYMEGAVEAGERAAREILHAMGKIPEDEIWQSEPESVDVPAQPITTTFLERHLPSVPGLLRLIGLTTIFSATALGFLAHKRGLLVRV
# [25] = target: Voltage-gated inwardly rectifying potassium channel KCNH2 (Homo sapiens, UniProt Q12809); assay: Inhibition of human ERG
# [26] = Solubility of compound; assay type: physicochemical
# [27] = Permeability from apical to basolateral side in human Caco2 cells; assay type: ADME, cell-based; details: Caco-2, read-out: permeability
# [28] = Permeability from basolateral to apical side in human Caco2 cells; assay type: ADME, cell-based; details: Caco-2, read-out: permeability
# [29] = Protein binding in plasma (unknown origin) assessed as unbound fraction; assay type: ADME, cell-free
# CYP3A4 = CYP3A4 (Homo sapiens, UniProt P08684); assay: Inhibition of CYP3A4 (unknown origin) at 10 uM relative to control; assay type: ADME
# CYP2D6 = CYP2D6 (Homo sapiens, UniProt P10635); assay: Inhibition of CYP2D6 (unknown origin) at 10 uM relative to control; assay type: ADME
# Sequence of CYP2D6 (P10635 whole entry): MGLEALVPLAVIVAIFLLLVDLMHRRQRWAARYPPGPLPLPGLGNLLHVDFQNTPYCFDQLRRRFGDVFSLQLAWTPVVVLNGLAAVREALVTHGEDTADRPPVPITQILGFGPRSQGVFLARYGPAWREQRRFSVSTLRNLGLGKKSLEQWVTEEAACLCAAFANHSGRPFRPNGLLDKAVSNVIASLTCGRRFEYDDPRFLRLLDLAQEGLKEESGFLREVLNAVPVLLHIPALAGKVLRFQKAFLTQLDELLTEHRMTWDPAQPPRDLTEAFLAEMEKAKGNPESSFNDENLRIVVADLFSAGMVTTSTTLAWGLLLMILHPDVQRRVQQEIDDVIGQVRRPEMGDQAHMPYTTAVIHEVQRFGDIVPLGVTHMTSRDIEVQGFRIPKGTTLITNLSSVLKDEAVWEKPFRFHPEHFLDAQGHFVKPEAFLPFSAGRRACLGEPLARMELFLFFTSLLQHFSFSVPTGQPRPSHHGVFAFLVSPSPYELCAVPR
# Sequence of Histone deacetylase 1 (Homo sapiens) (Q13547 whole entry): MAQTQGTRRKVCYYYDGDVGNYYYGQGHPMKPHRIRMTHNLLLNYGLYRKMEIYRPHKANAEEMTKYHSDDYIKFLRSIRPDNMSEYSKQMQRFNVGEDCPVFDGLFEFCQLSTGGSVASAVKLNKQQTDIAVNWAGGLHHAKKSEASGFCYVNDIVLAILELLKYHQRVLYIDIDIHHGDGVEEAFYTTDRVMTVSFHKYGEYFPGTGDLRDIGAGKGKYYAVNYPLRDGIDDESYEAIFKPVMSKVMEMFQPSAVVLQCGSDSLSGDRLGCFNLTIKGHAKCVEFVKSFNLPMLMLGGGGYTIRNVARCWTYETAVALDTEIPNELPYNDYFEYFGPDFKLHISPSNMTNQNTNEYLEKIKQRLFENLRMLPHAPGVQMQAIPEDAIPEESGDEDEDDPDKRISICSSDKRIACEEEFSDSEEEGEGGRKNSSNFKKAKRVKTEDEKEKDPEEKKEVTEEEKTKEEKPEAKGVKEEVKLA
# Sequence of CYP3A4 (P08684 whole entry): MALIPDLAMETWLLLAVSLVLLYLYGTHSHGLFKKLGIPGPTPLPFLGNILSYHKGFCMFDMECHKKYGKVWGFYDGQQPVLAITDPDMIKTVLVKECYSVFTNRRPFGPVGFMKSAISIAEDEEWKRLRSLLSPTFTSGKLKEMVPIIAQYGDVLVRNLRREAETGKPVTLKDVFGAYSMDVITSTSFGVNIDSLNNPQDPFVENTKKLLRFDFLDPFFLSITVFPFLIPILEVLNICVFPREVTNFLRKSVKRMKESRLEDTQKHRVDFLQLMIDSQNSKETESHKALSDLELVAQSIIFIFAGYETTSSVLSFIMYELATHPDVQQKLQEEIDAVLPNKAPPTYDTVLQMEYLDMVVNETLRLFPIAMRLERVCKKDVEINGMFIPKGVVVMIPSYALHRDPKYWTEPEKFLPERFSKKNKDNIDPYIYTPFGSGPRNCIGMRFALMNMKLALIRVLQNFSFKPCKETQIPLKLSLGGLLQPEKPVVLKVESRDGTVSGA
# Sequence of Voltage-gated inwardly rectifying potassium channel KCNH2 (Q12809 whole entry): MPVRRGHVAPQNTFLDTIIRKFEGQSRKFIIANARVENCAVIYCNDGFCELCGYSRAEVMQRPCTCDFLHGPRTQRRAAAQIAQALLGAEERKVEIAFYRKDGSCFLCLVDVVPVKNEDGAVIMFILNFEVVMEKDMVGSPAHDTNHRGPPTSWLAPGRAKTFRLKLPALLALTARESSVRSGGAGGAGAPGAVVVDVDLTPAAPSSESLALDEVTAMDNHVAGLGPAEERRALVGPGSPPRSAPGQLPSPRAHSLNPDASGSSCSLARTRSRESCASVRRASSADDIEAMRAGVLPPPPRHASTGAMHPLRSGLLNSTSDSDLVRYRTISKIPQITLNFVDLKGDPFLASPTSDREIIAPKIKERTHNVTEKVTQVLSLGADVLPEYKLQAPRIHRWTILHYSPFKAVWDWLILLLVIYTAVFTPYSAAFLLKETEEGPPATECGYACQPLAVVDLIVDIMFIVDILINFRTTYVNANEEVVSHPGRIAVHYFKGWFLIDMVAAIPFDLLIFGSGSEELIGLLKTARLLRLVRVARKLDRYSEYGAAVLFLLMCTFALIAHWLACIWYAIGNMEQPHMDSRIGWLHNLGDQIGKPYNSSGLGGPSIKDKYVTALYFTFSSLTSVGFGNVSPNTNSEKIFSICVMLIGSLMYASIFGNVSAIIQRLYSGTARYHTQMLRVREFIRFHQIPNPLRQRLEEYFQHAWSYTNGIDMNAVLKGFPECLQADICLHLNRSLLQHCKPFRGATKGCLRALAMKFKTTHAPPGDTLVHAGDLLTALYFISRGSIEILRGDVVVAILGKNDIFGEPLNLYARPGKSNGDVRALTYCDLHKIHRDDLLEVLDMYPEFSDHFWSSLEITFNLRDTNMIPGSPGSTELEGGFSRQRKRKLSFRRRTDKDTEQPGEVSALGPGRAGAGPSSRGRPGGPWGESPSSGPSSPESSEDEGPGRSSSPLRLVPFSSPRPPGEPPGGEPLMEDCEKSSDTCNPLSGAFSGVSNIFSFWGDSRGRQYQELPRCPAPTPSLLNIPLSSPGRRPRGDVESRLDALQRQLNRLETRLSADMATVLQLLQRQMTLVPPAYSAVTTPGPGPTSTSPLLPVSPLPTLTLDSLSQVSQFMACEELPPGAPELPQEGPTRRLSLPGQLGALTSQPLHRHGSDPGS
smiles,measurement,setting,value
Cl.Cl.NC1CCC(N[C@@H]2C[C@H]2c2ccccc2)CC1 (some centres not stated),IC50,[1],Not Active
same,inhibition,[2],inactive
same,EC50,MM1.S [3],> 10 µM
same,Activity,MM1.S [4],30%
O=C(NO)c1ccc(CCCN2CCC(CN[C@H]3C[C@@H]3c3ccccc3)CC2)cc1 (racemic),Stabilty,[5],40%
same,Stabilty,[6],56%
same,IC50,[7],1.78 µM
same,IC50,[8],> 10 µM
same,EC50,[9],0.006 µM
same,EC50,RPMI-8226,0.28 µM
same,inhibition in vivo at 25 mg/kg,MM1.S [10],67%
same,Activity,[11],Non-Toxic
same,concentration at 288 h,[12],216 ng/mL
same,concentration at 288 h,[13],52 ng/mL
same,half-life,[14],3.3 h
same,half-life,[15],2.5 h
same,Cmax,[16],821 ng/mL
same,Cmax,[17],904 ng/mL
same,C0,[18],1406 ng/mL
same,AUC(0-t),[19],1520 ng·h/mL
same,CL/F,[20],233 mL/min/kg
same,Vd,[21],66 L/kg
same,bioavailability,[22],44%
same,IC50,[23],8.6 µM
same,IC50,[24],6.6 µM
same,IC50,[25],5.6 µM
same,solubility,[26],110 µM
same,Papp A→B,[27],2.67 ×10⁻⁶ cm/s
same,Papp B→A,[28],9.6 ×10⁻⁶ cm/s
same,fraction unbound,[29],0.45
same,inhibition at 10 µM,CYP3A4,11%
same,inhibition at 10 µM,CYP2D6,54%
